Where “and” joins values, the source holds several entries; their conditions need not be identical. Equal values may be shown once. Toxic doses and inconclusive results are not listed.
Tested on: P388 leukemia ip, CD2F1 mice, survival T/C
Experiment: NCI In Vivo Anticancer Drug Screen. Data for tumor model P388 Leukemia (intraperitoneal) in CD2F1 (CDF1) mice
Conditions: endpoint: median survival time, higher = longer survival
Method in brief: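 Mice carrying the transplanted tumor received test compound or vehicle. Survival was recorded in each group, and the value is the treated-group measurement divided by that of the vehicle-treated control group.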

[1] = dose: 50.0 mg/kg/injection, schedule: Q01DX005 (ip), vehicle: saline with Tween-80
[2] = dose: 100.0 mg/kg/injection, schedule: Q01DX005 (ip), vehicle: saline with Tween-80
[3] = dose: 200.0 mg/kg/injection, schedule: Q01DX005 (ip), vehicle: saline with Tween-80
[4] = dose: 60.0 mg/kg/injection, schedule: Q01DX005 (ip), vehicle: Klucel (hydroxypropylcellulose) (HPC)
[5] = dose: 120.0 mg/kg/injection, schedule: Q01DX005 (ip), vehicle: Klucel (hydroxypropylcellulose) (HPC)
[6] = dose: 240.0 mg/kg/injection, schedule: Q01DX005 (ip), vehicle: Klucel (hydroxypropylcellulose) (HPC)
[7] = dose: 50.0 mg/kg/injection, schedule: Q01DX005 (ip), vehicle: Klucel (hydroxypropylcellulose) (HPC)
[8] = dose: 100.0 mg/kg/injection, schedule: Q01DX005 (ip), vehicle: Klucel (hydroxypropylcellulose) (HPC)
[9] = dose: 200.0 mg/kg/injection, schedule: Q01DX005 (ip), vehicle: Klucel (hydroxypropylcellulose) (HPC)
[10] = dose: 12.5 mg/kg/injection, schedule: Q01DX005 (ip), vehicle: saline with Tween-80

For `CCN(CC)CCOc1c(Cl)cc(Cl)cc1Cl`, the T/C [1] was 93 % of control, the T/C [2] was 111 % of control and the T/C [3] was 111 % of control.

With `O=C(OC(C(=O)O)C(OC(=O)c1ccccc1)C(=O)O)c1ccccc1` (configuration not stated) the T/C [1] was 106 % of control, the T/C [2] was 99 % of control and the T/C [3] was 98 % of control.

`O=C1CC2(C(=O)O1)C1C(=O)OC(=O)C1C1c3ccccc3C=NN12` (configuration not stated) was tested, and the T/C (dose: 50.0 mg/kg/injection, schedule: Q01DX009 (ip), vehicle: saline with Tween-80) was 98 % of control, the T/C (dose: 100.0 mg/kg/injection, schedule: Q01DX009 (ip), vehicle: saline with Tween-80) was 93 % of control and the T/C (dose: 200.0 mg/kg/injection, schedule: Q01DX009 (ip), vehicle: saline with Tween-80) was 100 % of control.

With `O=C1C2CCCN2C(=S)N1c1ccccc1` (configuration not stated) the T/C [4] was 96 % of control, the T/C [5] was 91 % of control and the T/C [6] was 94 % of control.

`COC1C2=C(CCCC2)OC(=O)C1(Cl)c1ccccc1` (configuration not stated) was tested, and the T/C [7] was 96 % of control, the T/C [8] was 101 % of control and the T/C [9] was 101 % of control.

In the case of `Nc1ccc2nc(-c3ccccc3)c(=O)oc2c1`, the T/C (dose: 60.0 mg/kg/injection, schedule: Q01DX005 (ip), vehicle: saline with Tween-80) is reported as 97 % of control and the T/C (dose: 120.0 mg/kg/injection, schedule: Q01DX005 (ip), vehicle: saline with Tween-80) is reported as 98 % of control.

`OC1CC2CCc3[nH]c4ccccc4c3CCN(C1)C2` (configuration not stated) was tested, and the T/C (dose: 5.5 mg/kg/injection, schedule: Q01DX005 (ip), vehicle: Klucel (hydroxypropylcellulose) (HPC)) was 91 % of control, the T/C (dose: 11.0 mg/kg/injection, schedule: Q01DX005 (ip), vehicle: Klucel (hydroxypropylcellulose) (HPC)) was 96 % of control and the T/C (dose: 22.0 mg/kg/injection, schedule: Q01DX005 (ip), vehicle: Klucel (hydroxypropylcellulose) (HPC)) was 100 % of control. For the same compound, the T/C (dose: 44.0 mg/kg/injection, schedule: Q01DX005 (ip), vehicle: Klucel (hydroxypropylcellulose) (HPC)) was 100 % of control.

`COP(=O)(CC(=O)CCCCCO)OC` was tested, and the T/C (dose: 60.0 mg/kg/injection, schedule: Q01DX005 (ip), vehicle: saline) was 114 % of control, the T/C (dose: 120.0 mg/kg/injection, schedule: Q01DX005 (ip), vehicle: saline) was 107 % of control and the T/C (dose: 240.0 mg/kg/injection, schedule: Q01DX005 (ip), vehicle: saline) was 107 % of control.

For `NC(=O)c1cc([N+](=O)[O-])cnc1Sc1ncn[nH]1`, the T/C (dose: 50.0 mg/kg/injection, schedule: Q01DX009 (ip), vehicle: Klucel (hydroxypropylcellulose) (HPC)) was 98 % of control and the T/C (dose: 100.0 mg/kg/injection, schedule: Q01DX009 (ip), vehicle: Klucel (hydroxypropylcellulose) (HPC)) was 107 % of control.

For `COC(=O)c1c2ccccc2cn1C`, the T/C (dose: 100.0 mg/kg/injection, schedule: Q04DX002 (ip), vehicle: saline with Tween-80) was 100 % of control and the T/C (dose: 200.0 mg/kg/injection, schedule: Q04DX002 (ip), vehicle: saline with Tween-80) was 102 % of control.

In the case of `CC(=O)NCC#N`, the T/C (dose: 100.0 mg/kg/injection, schedule: Q01DX001 (ip), vehicle: saline) is reported as 107 % of control, the T/C (dose: 200.0 mg/kg/injection, schedule: Q01DX001 (ip), vehicle: saline) is reported as 102 % of control and the T/C (dose: 400.0 mg/kg/injection, schedule: Q01DX001 (ip), vehicle: saline) is reported as 121 % of control.

In the case of `Nc1nc(Cl)nc2c1ncn2C1OC(CO)C(O)C1O` (configuration not stated), the T/C (dose: 3.1 mg/kg/injection, schedule: Q01DX010 (ip), vehicle: carboxymethylcellulose (CMC)) is reported as 105 % of control, the T/C (dose: 6.2 mg/kg/injection, schedule: Q01DX010 (ip), vehicle: carboxymethylcellulose (CMC)) is reported as 120 % of control and the T/C (dose: 25.0 mg/kg/injection, schedule: Q01DX010 (ip), vehicle: carboxymethylcellulose (CMC)) is reported as 150 % of control.

With `O=C1N(Cc2ccccc2)C2CCS(=O)CCC2N1Cc1ccccc1` (configuration not stated) the T/C [1] was 100 % of control, the T/C [2] was 95 % of control and the T/C [3] was 92 % of control.

With `CN(C)CCCNc1c2ccccc2nc2cc([N+](=O)[O-])ccc12` the T/C (dose: 0.1 mg/kg/injection, schedule: Q01DX009 (ip), vehicle: water) was 103 % of control, the T/C (dose: 0.2 mg/kg/injection, schedule: Q01DX009 (ip), vehicle: water) was 104 % of control and the T/C (dose: 0.39 mg/kg/injection, schedule: Q01DX009 (ip), vehicle: water) was 100 % of control. The T/C (dose: 0.78 mg/kg/injection, schedule: Q01DX009 (ip), vehicle: water) was 100 % of control and 117 % of control, the T/C (dose: 1.56 mg/kg/injection, schedule: Q01DX009 (ip), vehicle: water) was 102 % of control and 108 % of control and the T/C (dose: 3.13 mg/kg/injection, schedule: Q01DX009 (ip), vehicle: water) was 123 % of control. For the same compound, the T/C (dose: 6.25 mg/kg/injection, schedule: Q01DX009 (ip), vehicle: water) was 95 % of control.

In the case of `Clc1ccccc1C(Nc1ncccn1)Nc1ncccn1`, the T/C [7] is reported as 93 % of control, the T/C [8] is reported as 93 % of control and the T/C [9] is reported as 96 % of control.

In the case of `CN(C)CCN(C)c1cccc2c1C(=O)c1cscc1C2=O`, the T/C (dose: 25.0 mg/kg/injection, schedule: Q01DX005 (ip), vehicle: saline) is reported as 100 % of control and the T/C (dose: 50.0 mg/kg/injection, schedule: Q01DX005 (ip), vehicle: saline) is reported as 100 % of control and 92 % of control.

With `CC1CN(Cc2cc(C(C)(C)c3cc(Cl)c(O)c(CN4CC(C)OC(C)C4)c3)cc(Cl)c2O)CC(C)O1` (configuration not stated) the T/C [10] was 101 % of control, the T/C (dose: 25.0 mg/kg/injection, schedule: Q01DX005 (ip), vehicle: saline with Tween-80) was 101 % of control and the T/C [1] was 87 % of control and 91 % of control.

In the case of `Cc1nn(C)c(=O)c2c3ccccc3nn12`, the T/C (dose: 100.0 mg/kg/injection, schedule: Q01DX001 (ip), vehicle: saline with Tween-80) is reported as 100 % of control, the T/C (dose: 200.0 mg/kg/injection, schedule: Q01DX001 (ip), vehicle: saline with Tween-80) is reported as 95 % of control and the T/C (dose: 400.0 mg/kg/injection, schedule: Q01DX001 (ip), vehicle: saline with Tween-80) is reported as 100 % of control.

`O=C(CBr)NC1OC(CO)C(O)C(O)C1O` (configuration not stated) was tested, and the T/C (dose: 2.5 mg/kg/injection, schedule: Q01DX009 (ip), vehicle: saline) was 99 % of control, the T/C (dose: 5.0 mg/kg/injection, schedule: Q01DX009 (ip), vehicle: saline) was 112 % of control and the T/C (dose: 10.0 mg/kg/injection, schedule: Q01DX009 (ip), vehicle: saline) was 108 % of control.

With `C=CCN(CC=C)CCSC(=S)NCCOC` the T/C (dose: 100.0 mg/kg/injection, schedule: Q04DX003 (ip), vehicle: saline with Tween-80) was 100 % of control and the T/C (dose: 200.0 mg/kg/injection, schedule: Q04DX003 (ip), vehicle: saline with Tween-80) was 95 % of control.

`CCOC(=O)C(N=Nc1ccc(C)cc1Br)C(C)=O` (configuration not stated) was tested, and the T/C [1] was 102 % of control, the T/C [2] was 93 % of control and the T/C [3] was 93 % of control.

`COc1ccc(/C(C)=N/NS(=O)(=O)c2ccc(C)cc2)cc1OC` was tested, and the T/C (dose: 25.0 mg/kg/injection, schedule: Q01DX009 (ip), vehicle: other) was 97 % of control, the T/C (dose: 50.0 mg/kg/injection, schedule: Q01DX009 (ip), vehicle: other) was 96 % of control and the T/C (dose: 100.0 mg/kg/injection, schedule: Q01DX009 (ip), vehicle: other) was 93 % of control. The T/C (dose: 200.0 mg/kg/injection, schedule: Q01DX009 (ip), vehicle: other) was 97 % of control and the T/C (dose: 400.0 mg/kg/injection, schedule: Q01DX009 (ip), vehicle: other) was 88 % of control.

`CCC(=O)Nc1nnc(SCCCCCCCCCCSc2nnc(NC(=O)CC)s2)s1` was tested, and the T/C [7] was 89 % of control, the T/C [8] was 91 % of control and the T/C [9] was 87 % of control.

In the case of `CN(c1c(N)nc(N)nc1N)S(=O)(=O)c1ccc([N+](=O)[O-])cc1`, the T/C [4] is reported as 108 % of control, the T/C [5] is reported as 104 % of control and the T/C [6] is reported as 100 % of control.

In the case of `Cn1ncc(N)nc1=S`, the T/C (dose: 50.0 mg/kg/injection, schedule: Q01DX005 (ip), vehicle: suspension in saline) is reported as 101 % of control, the T/C (dose: 100.0 mg/kg/injection, schedule: Q01DX005 (ip), vehicle: suspension in saline) is reported as 97 % of control and the T/C (dose: 200.0 mg/kg/injection, schedule: Q01DX005 (ip), vehicle: suspension in saline) is reported as 105 % of control.

For `COc1cc(Cc2cnc(N)nc2N)cc(OC)c1OC`, the T/C [1] was 100 % of control, the T/C [2] was 99 % of control and the T/C [3] was 100 % of control. For the same compound, the T/C (dose: 400.0 mg/kg/injection, schedule: Q01DX005 (ip), vehicle: saline with Tween-80) was 100 % of control.

With `NC(=S)N/N=C/C1=C(Cl)c2ccccc2C1` the T/C (dose: 6.25 mg/kg/injection, schedule: Q01DX005 (ip), vehicle: saline with Tween-80) was 109 % of control and the T/C [10] was 119 % of control.

With `Nc1cc(C(=O)O)cc(Cl)n1` the T/C (dose: 3.12 mg/kg/injection, schedule: Q01DX009 (ip), vehicle: saline) was 108 % of control, the T/C (dose: 6.25 mg/kg/injection, schedule: Q01DX009 (ip), vehicle: saline) was 101 % of control and the T/C (dose: 12.5 mg/kg/injection, schedule: Q01DX009 (ip), vehicle: saline) was 107 % of control. For the same compound, the T/C (dose: 25.0 mg/kg/injection, schedule: Q01DX009 (ip), vehicle: saline) was 111 % of control.

— PubChem BioAssay AID330 (DTP/NCI, 2004)
